Results as given in a melting point compilation (Tetko et al.; mined from patent text by program, amines drawn as free bases though some values may be those of a salt).

Compound	melting point
COc1ccc(OC)c2c1CCOC2CCl (stereo unspecified)	101 to 102 °C
CCOC(=O)c1csc(C=O)n1	65 to 67 °C
Nc1nnc(-c2ccccc2Nc2cccc(C(F)(F)F)c2)s1	122 to 123 °C
CCOC(=O)c1ccc(OCCOc2ccc(-c3onc(SC)c3C#N)cc2)cc1	162 to 164 °C
COC(=O)[C@H](Cc1ccc(N2C(=O)c3ccc(Br)cc3C2=O)cc1)NC(=O)OC(C)(C)C	168 to 170 °C
COc1c(Cl)c(F)cc2c(=O)c(C(=O)O)cn(C3CC3)c12	195 to 199 °C
COc1cc(OC)c(-c2cc3ccccc3s2)cc1C=CC(=O)c1cc(OC)c(O)c(OC)c1	85 to 105 °C
O=C(O)c1cc([N+](=O)[O-])cc2ccccc12	255 to 257 °C
COc1ccc(C2=NN(C3CCN(C(C)=O)CC3)C(=O)C3CC=CCC23)cc1Cl (stereo unspecified)	206 to 208 °C
O=C(O)c1cccnc1N1CCN(CCOCCO)CC1	172 to 174 °C
COc1ccccc1CC(=N)N1C[C@@H]2C(=O)CCC(c3ccccc3)(c3ccccc3)[C@@H]2C1	190 °C
CC(Br)c1ccc2c(-c3ccccc3)onc2c1 (stereo unspecified)	99 to 102 °C
CC(C)(C)OC(=O)N[C@@H](CC(=O)OCc1ccccc1)C(=O)NCCc1ccc(C(=O)OCc2ccccc2)cc1	99 to 100 °C
NNc1ccc([N+](=O)[O-])cc1F	119 to 121 °C
CCOC(=O)N1c2ccccc2Sc2cc(O)c3ccccc3c21	205 to 206 °C
CSc1ccc(C(=O)Cc2cccc(F)c2)cc1	94.5 to 95.5 °C
CC(C(=O)OC1(C)CCCCC1)c1ccc(N)cc1 (stereo unspecified)	85 to 87 °C
CCOC(=O)C1=C(COCC2COC(C)(C)O2)NC(C)=C(C(=O)OC)C1c1cccc(Cl)c1Cl (stereo unspecified)	135 to 137 °C
COC(=O)c1ccc2c(ccn2Cc2cccc([N+](=O)[O-])c2)c1	129 to 130 °C
CN1CC(CN2CC(=O)NC2=O)=CC2c3cccc4[nH]cc(c34)CC21 (stereo unspecified)	204 to 206 °C
O=[N+]([O-])c1ccc(C=Cc2ccc(N3CCOCCOCCOCCOCCOCC3)cc2)c([N+](=O)[O-])c1	90 to 91 °C
CCCCOP(=O)(OCCCC)C(Sc1cc(F)ccc1O)=P(OCCCC)(OCCCC)OCCCC	165 to 166 °C
O=[N+]([O-])c1cc2nc(O)c(O)nc2c2c([N+](=O)[O-])cccc12	> 300 °C
CN(CCNC(=O)c1nc(Cl)c(N)nc1N)CCC(=O)NCCN	140 to 142 °C
CCOC(=O)C(O)CCc1ccc(C(=O)CCc2nc(-c3ccccc3)oc2C)cc1 (stereo unspecified)	87 to 88 °C
CCCCCCCCCCCCCCCC(=O)N1C[C@H](O)C[C@H]1C(=O)OCCCCCCCCCCCC	39 to 44 °C

Compound	melting point
COc1ccc2[nH]c(C(=O)c3ccccc3)c(NC(C)=O)c2c1	258 to 260 °C
Cc1cc(C(N)=O)c(N)s1	140 to 141 °C
Cc1ccc(Cc2c[nH]c(NCCCC3CCCc4cccnc43)nc2=O)cn1 (stereo unspecified)	75 to 80 °C
CCc1cccc2c(O)cnnc12	160 to 161 °C
N#CC(NCc1cccnc1)c1ccoc1 (stereo unspecified)	80 to 82 °C
Cc1cc(C)c(NC(=O)NC2CC2c2ccc(-c3ncn(-c4ccc(OC(F)(F)F)cc4)n3)cc2)c(C)c1 (stereo unspecified)	254 to 256 °C
O=C(NCc1ccccc1)c1ccccc1-c1ccccc1CNS(=O)(=O)c1cccc(F)c1	147 °C
O=c1[nH]c2cc(Cl)ccc2c(O)c1-c1ccc(Oc2ccccc2)cc1	274 to 276 °C
CC1OC(C)C(C(=O)O)C1=O (stereo unspecified)	55 to 57 °C
CC(C)(C)n1cc(-c2ccc(-c3ccccc3)cc2)c2c(N)ncnc21	212 to 214 °C
COC(=O)CC(=O)c1ncccc1Cl	113 to 116 °C
CCN(c1nc(C)cc(-c2ccccc2C(=O)O)n1)c1ccc(C(C)C)cc1Br	209 to 210 °C
Cc1cccc(CNc2c(NC(C)(C)C)c(=O)c2=O)c1C	237 to 239 °C
O=C1CCCc2cc(O)ccc21	153 to 155 °C
CCCn1c(=O)c(C#N)c(Cl)c2ccccc21	203 to 205 °C
CC(=O)N(CCCc1ccccc1)[C@H]1CC[C@H](c2ccc(OCc3ccccc3)cc2)CC1	80 to 81.5 °C
CSc1ccccc1C(=O)Nc1ccccc1	148 to 149 °C
COc1ccc(-c2cc(C(N)=O)c(=O)n(CC=Cc3ccc(Cl)cc3)n2)cc1	195 to 196 °C
CCCCc1nc(=O)c2cc(-c3nnn(C(c4ccccc4)(c4ccccc4)c4ccccc4)n3)ccc2[nH]1	182 °C
O=C(Nc1cccc(C(F)(F)F)c1)c1cccc2cc(Oc3cc(COCc4ccccc4)ncn3)ccc12	123 to 124 °C
CSc1ncc(C#N)c(NC(C)C)n1	121 to 122 °C
Nc1ccc2c3c(cccc13)C(=O)N2	240 to 242 °C
O=C(N1CCc2ccccc2CC1)C(F)(F)F	73 to 74 °C
N#C/C=C/c1ccc(Cl)cc1Cl	156 °C
Cc1ncc([N+](=O)[O-])n1CCn1c(=O)[nH]c2ccccc2c1=O	261 to 264 °C
